Common to all, as to experiment: biochemical
Parameters in all cases: KINOMEscan competition binding panel (Eurofins DiscoverX), single concentration, percent inhibition
Details in all cases: read-out: 15 at 1 µM % inhibition

The target of one assay is ALK(C1156Y) (Homo sapiens, UniProt Q9UM73, C1156Y). A digest of the protocol: (§1)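 Kinome-wide profiling (KINOMEscan, >400 human kinases) was run at 1 µM compound.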
The target in a further assay is T1, YANK3 (Homo sapiens, UniProt Q86UX6).
T1 construct: gene STK32C
Summed up:
as §1

The target in a further assay is T2, CDK11 (Homo sapiens, UniProt Q9BWU1).
T2 construct: gene CDK19
Summed up: as §1

A further assay deals with T3, GCN2(Kin.Dom.2,S808G) (Homo sapiens, UniProt Q9P2K8, S808G).
T3 construct: gene EIF2AK4; Kin.Dom.2
A digest of the protocol: as §1

The target in a further assay is PLK4 (Homo sapiens, UniProt O00444). Summed up: as §1
The target in another assay is STK35 (Homo sapiens, UniProt Q8TDR2). A digest of the protocol: as §1
Sequence of STK35 (Q8TDR2 whole entry): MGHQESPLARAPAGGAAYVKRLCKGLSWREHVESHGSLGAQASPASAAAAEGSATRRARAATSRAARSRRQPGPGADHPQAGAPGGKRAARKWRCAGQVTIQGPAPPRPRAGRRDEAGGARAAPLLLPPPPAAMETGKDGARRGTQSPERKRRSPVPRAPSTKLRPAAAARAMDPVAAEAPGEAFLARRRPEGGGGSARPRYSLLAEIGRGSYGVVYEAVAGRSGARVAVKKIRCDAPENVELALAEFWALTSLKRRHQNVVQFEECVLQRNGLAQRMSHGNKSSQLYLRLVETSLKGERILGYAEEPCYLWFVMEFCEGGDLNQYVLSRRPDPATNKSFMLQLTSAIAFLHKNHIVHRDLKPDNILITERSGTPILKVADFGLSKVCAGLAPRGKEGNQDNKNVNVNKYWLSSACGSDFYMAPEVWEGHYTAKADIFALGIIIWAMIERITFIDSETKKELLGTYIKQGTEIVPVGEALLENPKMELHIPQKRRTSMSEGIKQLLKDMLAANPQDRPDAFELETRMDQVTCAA
Another assay deals with CAMK4 (Homo sapiens, UniProt Q16566). A digest of the protocol:
as §1

The target of the next assay is T4, IKK-beta (Homo sapiens, UniProt O14920).
T4 construct: gene IKBKB
T4 sequence (O14920 whole entry): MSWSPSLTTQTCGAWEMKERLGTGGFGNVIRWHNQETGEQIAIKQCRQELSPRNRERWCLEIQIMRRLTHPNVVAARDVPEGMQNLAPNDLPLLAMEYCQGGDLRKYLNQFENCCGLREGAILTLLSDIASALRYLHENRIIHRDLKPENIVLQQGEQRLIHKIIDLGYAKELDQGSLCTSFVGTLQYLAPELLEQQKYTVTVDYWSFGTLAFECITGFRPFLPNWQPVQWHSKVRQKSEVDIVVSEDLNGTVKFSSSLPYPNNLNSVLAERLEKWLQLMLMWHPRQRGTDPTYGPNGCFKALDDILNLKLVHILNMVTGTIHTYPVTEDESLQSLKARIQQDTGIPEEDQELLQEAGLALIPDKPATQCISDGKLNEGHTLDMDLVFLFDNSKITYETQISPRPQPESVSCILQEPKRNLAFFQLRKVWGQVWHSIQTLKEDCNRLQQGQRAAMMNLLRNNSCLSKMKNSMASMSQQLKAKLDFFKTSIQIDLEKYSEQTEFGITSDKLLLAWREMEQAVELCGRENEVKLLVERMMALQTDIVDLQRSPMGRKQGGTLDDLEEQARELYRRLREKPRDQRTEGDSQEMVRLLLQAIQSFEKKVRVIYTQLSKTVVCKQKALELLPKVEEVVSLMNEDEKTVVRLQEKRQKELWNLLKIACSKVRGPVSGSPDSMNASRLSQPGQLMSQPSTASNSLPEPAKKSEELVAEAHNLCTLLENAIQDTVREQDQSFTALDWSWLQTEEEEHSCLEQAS
A digest of the protocol: as §1

In a further assay the target is PKN2 (Homo sapiens, UniProt Q16513). Summed up: as §1
In assay [1] the target is T5, TYK2(JH2domain-pseudokinase) (Homo sapiens, UniProt P29597).
T5 construct: JH2domain-pseudokinase
Summed up: as §1

Another assay concerns the target NEK3 (Homo sapiens, UniProt P51956). Summed up:
as §1

The target in another assay is CDK4 (Homo sapiens, UniProt P11802). A digest of the protocol: as §1
For another assay, the target named is T6, DCAMKL2 (Homo sapiens, UniProt Q8N568).
T6 construct: gene DCLK2
Summed up:
as §1

The next assay addresses CSNK1E (Homo sapiens, UniProt P49674). A digest of the protocol:
as §1

In a further assay the target is BUB1 (Homo sapiens, UniProt O43683). A digest of the protocol: as §1
Sequence of BUB1 (O43683 whole entry): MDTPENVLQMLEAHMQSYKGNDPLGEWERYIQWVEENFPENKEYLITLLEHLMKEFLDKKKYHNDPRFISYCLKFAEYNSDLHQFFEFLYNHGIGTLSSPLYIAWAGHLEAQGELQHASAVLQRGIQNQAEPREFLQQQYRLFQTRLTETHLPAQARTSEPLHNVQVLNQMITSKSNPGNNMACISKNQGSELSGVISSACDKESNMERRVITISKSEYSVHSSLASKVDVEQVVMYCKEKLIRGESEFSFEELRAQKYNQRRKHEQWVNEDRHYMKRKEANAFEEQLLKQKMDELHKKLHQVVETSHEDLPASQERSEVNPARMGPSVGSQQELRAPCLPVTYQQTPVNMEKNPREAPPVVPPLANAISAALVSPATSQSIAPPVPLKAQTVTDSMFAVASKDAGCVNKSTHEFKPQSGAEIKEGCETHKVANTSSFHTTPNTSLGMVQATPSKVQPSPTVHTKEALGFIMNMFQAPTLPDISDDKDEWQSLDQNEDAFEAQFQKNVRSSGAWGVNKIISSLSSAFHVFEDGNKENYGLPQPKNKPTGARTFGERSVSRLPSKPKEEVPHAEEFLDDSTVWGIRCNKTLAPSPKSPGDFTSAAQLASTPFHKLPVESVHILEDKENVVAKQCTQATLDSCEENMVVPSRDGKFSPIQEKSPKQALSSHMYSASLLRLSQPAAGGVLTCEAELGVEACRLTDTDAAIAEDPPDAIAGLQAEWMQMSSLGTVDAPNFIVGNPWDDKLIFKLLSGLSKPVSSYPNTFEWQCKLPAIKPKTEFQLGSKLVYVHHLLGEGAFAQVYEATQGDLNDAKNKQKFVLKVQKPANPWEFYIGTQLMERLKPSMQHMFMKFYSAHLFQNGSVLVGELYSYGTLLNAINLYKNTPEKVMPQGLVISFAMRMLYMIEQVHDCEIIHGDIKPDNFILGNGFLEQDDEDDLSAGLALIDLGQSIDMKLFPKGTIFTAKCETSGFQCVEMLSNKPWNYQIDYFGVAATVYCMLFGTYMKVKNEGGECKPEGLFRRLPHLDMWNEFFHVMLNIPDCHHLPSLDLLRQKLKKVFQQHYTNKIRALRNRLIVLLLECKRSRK
In a further assay the target is KIT(V559D,V654A) (Homo sapiens, UniProt P10721, V559D/V654A). Summed up: as §1
Sequence of KIT(V559D,V654A) (P10721 whole entry V559D/V654A): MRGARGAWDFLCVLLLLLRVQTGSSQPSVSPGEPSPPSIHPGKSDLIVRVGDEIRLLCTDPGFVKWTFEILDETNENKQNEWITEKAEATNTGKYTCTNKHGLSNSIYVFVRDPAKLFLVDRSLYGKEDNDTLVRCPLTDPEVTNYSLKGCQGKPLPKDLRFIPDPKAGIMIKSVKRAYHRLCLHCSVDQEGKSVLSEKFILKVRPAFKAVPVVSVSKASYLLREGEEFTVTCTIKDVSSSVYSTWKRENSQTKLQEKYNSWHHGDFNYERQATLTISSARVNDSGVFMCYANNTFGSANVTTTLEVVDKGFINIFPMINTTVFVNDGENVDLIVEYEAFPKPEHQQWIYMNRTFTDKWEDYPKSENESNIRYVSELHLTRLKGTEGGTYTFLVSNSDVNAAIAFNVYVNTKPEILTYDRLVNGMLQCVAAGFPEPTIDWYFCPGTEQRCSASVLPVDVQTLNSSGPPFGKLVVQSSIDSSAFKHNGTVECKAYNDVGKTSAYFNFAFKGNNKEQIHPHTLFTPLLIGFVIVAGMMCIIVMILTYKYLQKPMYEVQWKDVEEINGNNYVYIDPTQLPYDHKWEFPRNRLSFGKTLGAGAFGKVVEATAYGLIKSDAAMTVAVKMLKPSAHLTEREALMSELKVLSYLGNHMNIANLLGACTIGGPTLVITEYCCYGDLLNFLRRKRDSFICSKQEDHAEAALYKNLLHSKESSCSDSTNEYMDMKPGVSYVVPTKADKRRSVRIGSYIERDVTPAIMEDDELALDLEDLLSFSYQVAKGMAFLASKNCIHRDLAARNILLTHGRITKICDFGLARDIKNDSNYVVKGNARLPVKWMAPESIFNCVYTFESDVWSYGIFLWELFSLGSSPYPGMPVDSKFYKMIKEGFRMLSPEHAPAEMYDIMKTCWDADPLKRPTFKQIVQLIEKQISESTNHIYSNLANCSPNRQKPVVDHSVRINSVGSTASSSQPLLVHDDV
The next assay deals with PIM3 (Homo sapiens, UniProt Q86V86). Summed up: as §1
The target in assay [2] is T7, RPS6KA5(Kin.Dom.2-C-terminal) (Homo sapiens, UniProt O75582).
T7 construct: Kin.Dom.2-C-terminal
Summed up:
as §1

A further assay deals with NEK11 (Homo sapiens, UniProt Q8NG66). Summed up:
as §1

A further assay deals with CSNK1G2 (Homo sapiens, UniProt P78368). Summed up:
as §1

For assay [3], the target named is T8, RSK3(Kin.Dom.1-N-terminal) (Homo sapiens, UniProt Q15349).
T8 construct: gene RPS6KA2; Kin.Dom.1-N-terminal
Summed up: as §1

In another assay the target is ULK3 (Homo sapiens, UniProt Q6PHR2). A digest of the protocol: as §1
Sequence of ULK3 (Q6PHR2 whole entry): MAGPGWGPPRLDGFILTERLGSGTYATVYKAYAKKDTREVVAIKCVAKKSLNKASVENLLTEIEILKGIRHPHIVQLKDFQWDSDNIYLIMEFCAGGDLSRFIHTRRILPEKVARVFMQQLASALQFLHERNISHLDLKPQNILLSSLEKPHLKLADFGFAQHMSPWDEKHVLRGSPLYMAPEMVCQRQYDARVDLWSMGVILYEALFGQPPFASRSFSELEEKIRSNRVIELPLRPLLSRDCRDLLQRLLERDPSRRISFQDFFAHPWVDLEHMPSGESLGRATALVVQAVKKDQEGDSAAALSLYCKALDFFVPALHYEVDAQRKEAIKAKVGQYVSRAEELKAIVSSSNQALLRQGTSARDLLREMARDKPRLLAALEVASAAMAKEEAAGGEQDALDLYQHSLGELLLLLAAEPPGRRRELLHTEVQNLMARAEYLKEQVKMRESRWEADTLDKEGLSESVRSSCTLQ
Another assay concerns the target T9, CDK4-cyclinD1 (Homo sapiens, UniProt P11802).
T9 construct: cyclinD1
Summed up:
as §1

Sequence of NEK11 (Q8NG66 whole entry): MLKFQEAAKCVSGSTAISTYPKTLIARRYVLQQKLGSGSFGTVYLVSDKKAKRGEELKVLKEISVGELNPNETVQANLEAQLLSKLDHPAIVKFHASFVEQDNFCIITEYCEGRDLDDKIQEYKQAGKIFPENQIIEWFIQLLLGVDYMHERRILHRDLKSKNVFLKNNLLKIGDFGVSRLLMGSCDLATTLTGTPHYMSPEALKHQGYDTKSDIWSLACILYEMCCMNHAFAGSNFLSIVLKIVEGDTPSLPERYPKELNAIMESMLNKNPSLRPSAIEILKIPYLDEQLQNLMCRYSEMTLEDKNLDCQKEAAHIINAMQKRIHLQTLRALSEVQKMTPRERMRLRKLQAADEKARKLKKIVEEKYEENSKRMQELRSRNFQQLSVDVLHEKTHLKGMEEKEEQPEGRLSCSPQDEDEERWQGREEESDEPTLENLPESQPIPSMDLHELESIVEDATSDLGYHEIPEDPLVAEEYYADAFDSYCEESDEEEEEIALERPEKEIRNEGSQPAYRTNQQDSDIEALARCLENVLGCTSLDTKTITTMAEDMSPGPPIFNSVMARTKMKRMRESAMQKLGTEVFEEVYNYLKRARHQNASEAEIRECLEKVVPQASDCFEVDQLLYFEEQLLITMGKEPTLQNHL
Sequence of NEK3 (P51956 whole entry): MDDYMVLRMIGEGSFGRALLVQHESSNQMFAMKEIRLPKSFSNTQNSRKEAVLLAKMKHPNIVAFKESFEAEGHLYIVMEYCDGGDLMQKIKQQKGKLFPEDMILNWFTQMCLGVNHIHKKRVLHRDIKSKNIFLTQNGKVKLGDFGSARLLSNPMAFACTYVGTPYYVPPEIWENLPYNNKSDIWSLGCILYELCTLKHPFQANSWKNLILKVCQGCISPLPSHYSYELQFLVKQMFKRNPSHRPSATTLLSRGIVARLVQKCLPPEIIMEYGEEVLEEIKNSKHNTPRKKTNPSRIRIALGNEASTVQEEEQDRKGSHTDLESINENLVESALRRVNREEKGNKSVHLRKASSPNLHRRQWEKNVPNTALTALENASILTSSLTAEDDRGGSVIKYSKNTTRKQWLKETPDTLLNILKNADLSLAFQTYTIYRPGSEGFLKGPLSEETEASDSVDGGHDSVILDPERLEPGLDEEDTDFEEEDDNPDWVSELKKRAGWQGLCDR

For the molecule `CNS(=O)(=O)c1ccc(N(C)C)c(Nc2nc(C)nc3cc(OC)c(OC)cc23)c1` [compound 15, 3-((6,7-dimethoxy-2-methylquinazolin-4-yl)amino)-4-(dimethylamino)-N-methylbenzenesulfonamide], the inhibition (commonly the change of the read-out against control, counted positive when it falls) at 1 µM on ALK(C1156Y) was 4%; on YANK3 it was 0%; on CDK11, 13%; at GCN2(Kin.Dom.2,S808G), 0%; at PLK4, 23%; on STK35, 0%. For the same molecule, the inhibition at 1 µM worked out at 1% at CAMK4; 37% on IKK-beta; 0% at PKN2; 0% in [1]; 0% on NEK3; 21% on CDK4. The inhibition at 1 µM at DCAMKL2 is 0%; at CSNK1E it was 0%; on BUB1, 7%; at KIT(V559D,V654A) it was 0%; at PIM3, 3%; in assay [2] it was 8%. Also, the inhibition at 1 µM was determined as 12% at NEK11; 0% on CSNK1G2; 11% in assay [3]; 23% at ULK3; 36% on CDK4-cyclinD1.

For the origin of these results see article PMC7180948, “New Insights into 4-Anilinoquinazolines as Inhibitors of Cardiac Troponin I–Interacting Kinase (TNNi3K)” (Molecules, 2020).
